In ChEMBL document CHEMBL5257091, “Hydrazinecarbonyl-thiazol-2-acetamides with pronounced apoptotic behavior: synthesis, in vitro/in vivo anti-proliferative activity and molecular modeling simulations” (Bioorg Med Chem Lett, 2023):

How the values were obtained:
MCF7 = experiment: Antiproliferative activity against human MCF7 cells assessed as inhibition of cell growth incubated for 24 hrs by MTT assay; format: functional, cell-based; settings: MCF7, 24 h
HeLa = experiment: Antiproliferative activity against human HeLa cells assessed as inhibition of cell growth incubated for 24 hrs by MTT assay; format: functional, cell-based
HEp-2 = experiment: Antiproliferative activity against human HEp-2 cells assessed as inhibition of cell growth incubated for 24 hrs by MTT assay; format: functional, cell-based; settings: HEp-2, 24 h
HepG2 = experiment: Antiproliferative activity against human HepG2 cells assessed as inhibition of cell growth incubated for 24 hrs by MTT assay; format: functional, cell-based; settings: HepG2, 24 h
PC-3 = experiment: Antiproliferative activity against human PC-3 cells assessed as inhibition of cell growth incubated for 24 hrs by MTT assay; format: functional, cell-based; settings: PC-3, 24 h
HCT-116 = experiment: cells; settings: Homo sapiens, HCT-116, 24 h
Description: Antiproliferative activity against human HCT-116 cells assessed as inhibition of cell growth incubated for 24 hrs by MTT assay

[1] = Cytotoxicity against human WI-38 cells assessed as inhibition of cell growth incubated for 24 hrs by MTT assay; format: toxicity, cell-based
[2] = Selectivity index, ratio of IC50 for cytotoxicity against human WI-38 cells to IC50 for antiproliferative activity against human HEp-2 cells; format: toxicity, cell-based; settings: WI-38 cells and HEp-2 cells, read-out: Ratio IC50
[3] = Selectivity index, ratio of IC50 for cytotoxicity against human WI-38 cells to IC50 for antiproliferative activity against human HeLa cells; format: toxicity, cell-based; settings: WI-38 cells and HeLa cells, read-out: Ratio IC50
[4] = Selectivity index, ratio of IC50 for cytotoxicity against human WI-38 cells to IC50 for antiproliferative activity against human PC-3 cells; format: toxicity, cell-based; settings: WI-38 cells and PC-3 cells, read-out: Ratio IC50
[5] = Selectivity index, ratio of IC50 for cytotoxicity against human WI-38 cells to IC50 for antiproliferative activity against human HepG2 cells; format: toxicity, cell-based; settings: WI-38 cells and HepG2 cells, read-out: Ratio IC50
[6] = Selectivity index, ratio of IC50 for cytotoxicity against human WI-38 cells to IC50 for antiproliferative activity against human MCF7 cells; format: toxicity, cell-based; settings: WI-38 cells and MCF7 cells, read-out: Ratio IC50
[7] = Selectivity index, ratio of IC50 for cytotoxicity against human WI-38 cells to IC50 for antiproliferative activity against human HCT-116 cells; format: toxicity, cell-based; settings: WI-38 cells and HCT-116 cells, read-out: Ratio IC50
[8] = target: Epidermal growth factor receptor (Homo sapiens, UniProt P00533); experiment: Inhibition of EGFR (unknown origin) by fluorimetric assay
Chain of Epidermal growth factor receptor (P00533 whole entry): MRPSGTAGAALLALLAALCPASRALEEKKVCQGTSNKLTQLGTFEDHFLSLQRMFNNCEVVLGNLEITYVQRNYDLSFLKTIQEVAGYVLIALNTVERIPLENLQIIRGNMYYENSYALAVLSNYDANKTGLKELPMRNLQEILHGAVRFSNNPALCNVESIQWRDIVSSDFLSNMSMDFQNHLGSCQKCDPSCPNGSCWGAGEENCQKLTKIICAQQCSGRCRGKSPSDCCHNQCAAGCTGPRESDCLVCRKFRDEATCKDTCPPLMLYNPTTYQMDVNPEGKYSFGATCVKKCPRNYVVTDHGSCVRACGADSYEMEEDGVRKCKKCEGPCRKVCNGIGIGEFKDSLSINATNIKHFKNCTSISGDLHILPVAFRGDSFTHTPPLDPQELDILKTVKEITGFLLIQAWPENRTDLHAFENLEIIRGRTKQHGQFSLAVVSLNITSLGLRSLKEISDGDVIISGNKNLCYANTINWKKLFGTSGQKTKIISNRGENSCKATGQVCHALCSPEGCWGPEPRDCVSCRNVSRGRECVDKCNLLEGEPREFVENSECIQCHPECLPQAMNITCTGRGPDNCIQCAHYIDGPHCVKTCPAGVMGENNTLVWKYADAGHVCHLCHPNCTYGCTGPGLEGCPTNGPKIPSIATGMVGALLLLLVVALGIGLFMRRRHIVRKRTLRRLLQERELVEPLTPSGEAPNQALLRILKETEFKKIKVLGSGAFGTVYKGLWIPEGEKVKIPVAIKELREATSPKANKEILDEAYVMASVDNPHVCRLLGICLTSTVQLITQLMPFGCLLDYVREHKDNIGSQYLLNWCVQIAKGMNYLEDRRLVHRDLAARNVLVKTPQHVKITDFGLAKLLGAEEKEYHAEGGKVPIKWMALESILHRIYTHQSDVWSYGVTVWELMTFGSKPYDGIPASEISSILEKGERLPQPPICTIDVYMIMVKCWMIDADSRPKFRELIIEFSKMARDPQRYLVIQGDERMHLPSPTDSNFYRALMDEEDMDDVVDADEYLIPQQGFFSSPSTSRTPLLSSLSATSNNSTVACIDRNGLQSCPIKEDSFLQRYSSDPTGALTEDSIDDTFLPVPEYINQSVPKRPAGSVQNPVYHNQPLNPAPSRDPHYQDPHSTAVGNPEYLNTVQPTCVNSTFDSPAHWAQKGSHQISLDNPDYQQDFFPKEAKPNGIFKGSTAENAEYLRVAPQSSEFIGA

Dihydrofolate reductase = target: T1, Dihydrofolate reductase (Homo sapiens, UniProt P00374); experiment: Inhibition of DHFR (unknown origin) incubated for 2 to 5 mins by absorbance based analysis
T1 sequence (P00374 whole entry): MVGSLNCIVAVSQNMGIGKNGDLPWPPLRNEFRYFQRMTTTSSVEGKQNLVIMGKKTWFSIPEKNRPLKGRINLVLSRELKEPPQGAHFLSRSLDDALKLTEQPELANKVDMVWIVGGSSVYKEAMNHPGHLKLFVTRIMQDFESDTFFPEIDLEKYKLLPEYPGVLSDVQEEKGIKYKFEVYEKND

[9] = Toxicity in Swiss albino mouse implanted with mouse Ehrlich cells assessed as reduction in body weight gain at 10 mg/kg, iv administered once daily for 20 days relative to control; format: organism-based; parameters: scale not given: the % may be the effect or the level left; settings: in vivo, 480 h, time 20 day
[10] = Toxicity in Swiss albino mouse implanted with mouse Ehrlich cells assessed as mean body weight at 10 mg/kg, iv administered once daily for 20 days (reference value: 30 g); format: organism-based; settings: in vivo, 480 h, time 20 day
Ehrlich = experiment: Antitumor activity against mouse Ehrlich cells implanted in Swiss albino mouse assessed as reduction in tumor volume at 10 mg/kg, iv administered once daily for 20 days relative to control; format: functional; parameters: scale not given: the % may be the effect or the level left; settings: time 20 day

SMILES	IC50 (MCF7)	IC50 (HeLa)	IC50 (HEp-2)	IC50 (HepG2)	IC50 (PC-3)	IC50 (HCT-116)	IC50 at 24 h [1]	selectivity ratio [2]	selectivity ratio [3]	selectivity ratio [4]	selectivity ratio [5]	selectivity ratio [6]	selectivity ratio [7]	IC50 [8]	IC50 (Dihydrofolate reductase)	Activity [9]	Activity [10]	Activity (Ehrlich)
CC(=O)Nc1nc(C(=O)NNC(=O)CCCl)cs1	69.2 µM	86.4 µM	93.2 µM	–	–	–	–	–	–	–	–	–	–	–	–	–	–	–
CCC(=O)NNC(=O)c1csc(NC(C)=O)n1	32.8 µM	26.9 µM	43.2 µM	39.3 µM	47.5 µM	42.7 µM	–	–	–	–	–	–	–	–	–	–	–	–
CC(=O)Nc1nc(C(=O)NNC(=O)CN2CCOCC2)cs1	13.6 µM	15.5 µM	17.2 µM	20.8 µM	29.8 µM	26.4 µM	37.2 µM	2.17	2.42	1.25	1.79	2.73	1.41	–	–	–	–	–
CC(=O)Nc1nc(C(=O)NNC(=O)CCN2CCOCC2)cs1	5.81 µM	3.81 µM	9.19 µM	7.34 µM	10.5 µM	13.2 µM	53.5 µM	5.82	14	5.08	7.29	9.2	4.06	0.143 µM	0.159 µM	–	–	–
CC(=O)Nc1nc(C(=O)NNC(=O)CN2CCN(Cc3ccccc3)CC2)cs1	57.7 µM	52.6 µM	84.8 µM	74.5 µM	92.3 µM	66 µM	–	–	–	–	–	–	–	–	–	–	–	–
CC(=O)NNC(=O)c1csc(NC(C)=O)n1	49.4 µM	57.4 µM	72.1 µM	87.2 µM	–	69.3 µM	–	–	–	–	–	–	–	–	–	–	–	–
COc1cccc2c1C(=O)c1c(O)c3c(c(O)c1C2=O)C[C@@](O)(C(=O)CO)C[C@@H]3O[C@H]1C[C@H](N)[C@H](O)[C@H](C)O1 [DOXORUBICIN]	–	–	–	–	–	–	–	–	–	–	–	–	–	–	–	25%	27 g	78.9%
